Here are results for one compound from paper PMC12147761 (Journal of medicinal chemistry, 2025).

The target of one assay is T1, CDK15/CycY (Homo sapiens, UniProt Q96Q40).
T1 construct: ICE Bioscience Inc. (assay service)
The assay can be described thus: CDK family panel, ADP-Glo. It counts as biochemical. A general note: In ADP-Glo the light output rises with the ADP produced.

The test system of assay [1] is phosphorylation of RNA polymerase II at Ser2. The assay can be described thus: Washout experiment, RNA polymerase II Ser2 phosphorylation (immunoblot). The class given is cell-based, human. The conditions noted are these: VCaP cells; YJZ5118 100 nM. The method, then: The previously reported reversible inhibitor 10 was included for comparison. VCaP cells were treated with the compounds for 6 h, after which the compounds were removed, and the cells were cultured in compound-free media for 5 days.
Generally, after incubation with the compounds for the indicated time, the tested cells were washed by cold PBS buffer (Gibco) and lysed with RIPA buffer (ThermoFisher Scientific) supplemented with cOmplete protease inhibitor cocktail tablets (Sigma-Aldrich). The cell lysate was treated with ultrasonic for 20s, following a centrifugation of 14000 rpm at 4°C for 10 min. The protein concentration was measured by BCA protein assay (DC Protein Assay, BIO-RAD). An equal amount of protein was loaded to 4–12% Bis-Tris gels and underwent SDS-PAGE electrophoresis at 120 V for 90 min. The proteins were transferred to a nitrocellulose (NC) membrane (Thermo Scientific) and the membranes were blocked in 5% milk buffer at room temperature for 1h, followed by incubating with primary antibody at the recommended dilution at 4°C for overnight. The membranes were washed by PBST for three times and incubated with anti-rabbit or anti-mouse HRP-conjugated secondary antibody for 1h at room temperature, after which the membranes were imaged by Odyssey CLx Imager (LiCOR Biosciences).
(Immunoblotting shows a protein as a band on a membrane.)

The test system of the next assay is CDK12. More on the design: method as in PMID 30067358. The conditions noted are these: LANCE Ultra assay; read-out: reported IC50 CDK12; cited from earlier work. A general note: Time-resolved FRET reads energy transfer from a long-lived donor to a nearby acceptor.
For a further assay, the system named is CDK13. The arrangement: method as in PMID 30067358. The conditions noted are these: LANCE Ultra assay; read-out: reported IC50 CDK13; cited from earlier work.

T1 sequence (Q96Q40 whole entry, species assumed): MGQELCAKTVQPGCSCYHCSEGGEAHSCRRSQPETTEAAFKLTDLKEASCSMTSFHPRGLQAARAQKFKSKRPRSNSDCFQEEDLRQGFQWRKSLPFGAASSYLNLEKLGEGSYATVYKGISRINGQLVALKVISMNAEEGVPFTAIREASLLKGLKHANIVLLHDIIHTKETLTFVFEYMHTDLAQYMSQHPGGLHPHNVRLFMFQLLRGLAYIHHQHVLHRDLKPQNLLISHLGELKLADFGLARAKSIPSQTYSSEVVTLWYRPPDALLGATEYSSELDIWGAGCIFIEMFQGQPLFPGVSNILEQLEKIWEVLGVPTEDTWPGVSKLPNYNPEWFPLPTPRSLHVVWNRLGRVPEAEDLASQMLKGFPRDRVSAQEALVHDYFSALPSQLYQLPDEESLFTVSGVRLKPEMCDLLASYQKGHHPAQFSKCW
T1 sequence (Q8ND76 whole entry partner, species assumed): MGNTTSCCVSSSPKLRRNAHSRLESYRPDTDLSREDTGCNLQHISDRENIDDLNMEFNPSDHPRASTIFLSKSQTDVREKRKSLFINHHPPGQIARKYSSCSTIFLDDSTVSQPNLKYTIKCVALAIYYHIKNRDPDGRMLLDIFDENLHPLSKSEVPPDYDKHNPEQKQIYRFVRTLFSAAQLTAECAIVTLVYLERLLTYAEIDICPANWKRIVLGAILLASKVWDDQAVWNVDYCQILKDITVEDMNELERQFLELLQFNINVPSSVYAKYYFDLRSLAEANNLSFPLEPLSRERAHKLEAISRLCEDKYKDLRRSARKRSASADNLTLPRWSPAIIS
Protocol for CDK15/CycY: All the kinase activity were performed using an ADP-Glo kinase assay by ICE Bioscience Inc. (Beijing, China).

Regarding `Cn1cc(-c2ccc(N(C(=O)NCc3ccccc3)[C@H]3CC[C@H](Nc4ccc(C#N)cn4)CC3)cc2)ccc1=O` [Compound 2, reference compound], the 50% inhibitory concentration (IC50) – broadly, the concentration needed to halve the response being measured – is 3020 nM at CDK15/CycY, 0.052 µM in the assay with CDK12 and 0.01 µM with CDK13. Moreover, in assay [1], the “RNA polymerase II Ser2 phosphorylation after washout” value is on record as “recovery of phosphorylation at 4 h after washout”.
